Laboratory results: PubChem BioAssay AID330 (DTP/NCI, 2004)
“And” between values parts separate entries of the source, which are not always exact repeats. Equal entries are not always repeated. Inconclusive results and toxic doses are left out. How the source made its calls: active means survival T/C of 150% or more; inactive means T/C below 125% in these data.

System: P388 leukemia ip, CD2F1 mice, survival T/C
Test: NCI In Vivo Anticancer Drug Screen. Data for tumor model P388 Leukemia (intraperitoneal) in CD2F1 (CDF1) mice
Conditions: endpoint: median survival time, higher = longer survival
Method in brief: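 Mice carrying the transplanted tumor received test compound or vehicle. Survival was recorded in each group, and the value is the treated-group measurement divided by that of the vehicle-treated control group.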

[1] = dose: 50.0 mg/kg/injection, schedule: Q01DX005 (ip), vehicle: saline
[2] = dose: 100.0 mg/kg/injection, schedule: Q01DX005 (ip), vehicle: saline
[3] = dose: 50.0 mg/kg/injection, schedule: Q01DX009 (ip), vehicle: saline with Tween-80
[4] = dose: 50.0 mg/kg/injection, schedule: Q01DX009 (ip), vehicle: saline
[5] = dose: 6.25 mg/kg/injection, schedule: Q01DX005 (ip), vehicle: saline with Tween-80
[6] = dose: 12.5 mg/kg/injection, schedule: Q01DX005 (ip), vehicle: saline with Tween-80
[7] = dose: 50.0 mg/kg/injection, schedule: Q01DX005 (ip), vehicle: saline with Tween-80
[8] = dose: 12.5 mg/kg/injection, schedule: Q01DX009 (ip), vehicle: saline
[9] = dose: 25.0 mg/kg/injection, schedule: Q01DX005 (ip), vehicle: saline
[10] = dose: 25.0 mg/kg/injection, schedule: Q01DX009 (ip), vehicle: saline
[11] = dose: 50.0 mg/kg/injection, schedule: Q01DX001 (ip), vehicle: Klucel (hydroxypropylcellulose) (HPC)
[12] = dose: 100.0 mg/kg/injection, schedule: Q01DX001 (ip), vehicle: Klucel (hydroxypropylcellulose) (HPC)
[13] = dose: 200.0 mg/kg/injection, schedule: Q01DX001 (ip), vehicle: Klucel (hydroxypropylcellulose) (HPC)
[14] = dose: 60.0 mg/kg/injection, schedule: Q01DX005 (ip), vehicle: Klucel (hydroxypropylcellulose) (HPC)
[15] = dose: 120.0 mg/kg/injection, schedule: Q01DX005 (ip), vehicle: Klucel (hydroxypropylcellulose) (HPC)
[16] = dose: 240.0 mg/kg/injection, schedule: Q01DX005 (ip), vehicle: Klucel (hydroxypropylcellulose) (HPC)
[17] = dose: 50.0 mg/kg/injection, schedule: Q01DX005 (ip), vehicle: Klucel (hydroxypropylcellulose) (HPC)
[18] = dose: 100.0 mg/kg/injection, schedule: Q01DX005 (ip), vehicle: Klucel (hydroxypropylcellulose) (HPC)
[19] = dose: 200.0 mg/kg/injection, schedule: Q01DX005 (ip), vehicle: Klucel (hydroxypropylcellulose) (HPC)
[20] = dose: 100.0 mg/kg/injection, schedule: Q04DX003 (ip), vehicle: saline
[21] = dose: 100.0 mg/kg/injection, schedule: Q04DX003 (ip), vehicle: saline with Tween-80
[22] = dose: 200.0 mg/kg/injection, schedule: Q04DX003 (ip), vehicle: saline with Tween-80
[23] = dose: 100.0 mg/kg/injection, schedule: Q01DX005 (ip), vehicle: saline with Tween-80
[24] = dose: 60.0 mg/kg/injection, schedule: Q01DX005 (ip), vehicle: saline with Tween-80
[25] = dose: 120.0 mg/kg/injection, schedule: Q01DX005 (ip), vehicle: saline with Tween-80
[26] = dose: 240.0 mg/kg/injection, schedule: Q01DX005 (ip), vehicle: saline with Tween-80
[27] = dose: 50.0 mg/kg/injection, schedule: Q01DX009 (ip), vehicle: Klucel (hydroxypropylcellulose) (HPC)
[28] = dose: 100.0 mg/kg/injection, schedule: Q01DX009 (ip), vehicle: Klucel (hydroxypropylcellulose) (HPC)

Measured: T/C

CC(=O)Oc1ccc(CO)cc1OC(C)=O
inactive: [1] 101 % of control and 102 % of control | [2] 106 % of control and 108 % of control

C=C[Se](=C(C(C)=O)C(C)=O)c1ccccc1 (centres undefined)
inactive: dose: 12.5 mg/kg/injection, schedule: Q01DX009 (ip), vehicle: saline with Tween-80 97 % of control | dose: 25.0 mg/kg/injection, schedule: Q01DX009 (ip), vehicle: saline with Tween-80 96 % of control | [3] 98 % of control | [4] 92 % of control | dose: 100.0 mg/kg/injection, schedule: Q01DX009 (ip), vehicle: saline 99 % of control | dose: 200.0 mg/kg/injection, schedule: Q01DX009 (ip), vehicle: saline 92 % of control

Cc1ccc(N=C2c3ccccc3-c3ccc(NC(=O)c4ccccc4)cc32)cc1
inactive: dose: 3.12 mg/kg/injection, schedule: Q01DX005 (ip), vehicle: saline with Tween-80 93 % of control | [5] 93 % of control | [6] 86 % of control | [7] 86 % of control

NC(=O)c1c(N)ncnc1N
inactive: dose: 12.5 mg/kg/injection, schedule: Q04DX002 (ip), vehicle: saline with Tween-80 102 % of control | dose: 25.0 mg/kg/injection, schedule: Q04DX002 (ip), vehicle: saline with Tween-80 104 % of control | dose: 50.0 mg/kg/injection, schedule: Q04DX002 (ip), vehicle: saline with Tween-80 101 % of control

N=c1ccn(O)cc1
inactive: dose: 6.25 mg/kg/injection, schedule: Q01DX005 (ip), vehicle: saline 101 % of control | dose: 12.5 mg/kg/injection, schedule: Q01DX005 (ip), vehicle: saline 107 % of control | [8] 111 % of control | [9] 102 % of control | [10] 111 % of control

C1CCC2[N-]CC3CCCCC3[N-]CC3CCCCC3[N-]CC3CCCCC3[N-]CC2C1.[Ni+2].[O-][Cl+3]([O-])([O-])O (centres undefined)
inactive: dose: 6.25 mg/kg/injection, schedule: Q01DX009 (ip), vehicle: saline 96 % of control

CN1CCC(COC(=O)CC(C)(C)C)C1 (centres undefined)
inactive: dose: 3.13 mg/kg/injection, schedule: Q01DX009 (ip), vehicle: water 105 % of control | dose: 6.25 mg/kg/injection, schedule: Q01DX009 (ip), vehicle: water 100 % of control | dose: 12.5 mg/kg/injection, schedule: Q01DX009 (ip), vehicle: water 99 % of control | dose: 25.0 mg/kg/injection, schedule: Q01DX009 (ip), vehicle: water 101 % of control | dose: 50.0 mg/kg/injection, schedule: Q01DX009 (ip), vehicle: water 105 % of control | dose: 100.0 mg/kg/injection, schedule: Q01DX009 (ip), vehicle: water 101 % of control

COc1cc(NCCCCCCNC(C)C)c2ncccc2c1
inactive: [5] 100 % of control | [6] 102 % of control | dose: 25.0 mg/kg/injection, schedule: Q01DX005 (ip), vehicle: saline with Tween-80 95 % of control

C/C(=N\O)c1ccccc1N=Nc1ccc(N(CCCl)CCCl)cc1C
inactive: [11] 100 % of control | [12] 98 % of control | [13] 104 % of control

CN(C)C1=NC(NCc2ccccc2)(N(C)C)OC(N(C)C)=N1 (centres undefined)
inactive: [9] 107 % of control | [1] 96 % of control

O=C(c1ccccc1)C1C(c2ccccc2)SC(c2ccccc2)CC1(O)Cl (centres undefined)
inactive: dose: 100.0 mg/kg/injection, schedule: Q04DX002 (ip), vehicle: Klucel (hydroxypropylcellulose) (HPC) 87 % of control | dose: 200.0 mg/kg/injection, schedule: Q04DX002 (ip), vehicle: Klucel (hydroxypropylcellulose) (HPC) 87 % of control | dose: 400.0 mg/kg/injection, schedule: Q04DX002 (ip), vehicle: Klucel (hydroxypropylcellulose) (HPC) 87 % of control

COC(=O)c1c(C)oc(C)c1-c1ccc(OCc2ccccc2)c(OC)c1
inactive: [14] 114 % of control | [15] 98 % of control | [16] 94 % of control

Cc1nc2[nH]ncc2c(=O)n1-c1ccccc1
inactive: [17] 97 % of control | [18] 99 % of control | [19] 100 % of control

O=C(/C=C\c1cc2[nH]c1c(-c1ccccc1)c1nc(c(-c3ccccc3)c3ccc([nH]3)c(-c3ccccc3)c3nc(c2-c2ccccc2)C=C3)C=C1)NCCCn1ccnc1
inactive: [11] 100 % of control | [12] 94 % of control | [13] 93 % of control | dose: 400.0 mg/kg/injection, schedule: Q01DX001 (ip), vehicle: Klucel (hydroxypropylcellulose) (HPC) 96 % of control

C/C(=N\OC(=O)c1ccccc1)c1ccccc1
inactive: [20] 102 % of control | dose: 200.0 mg/kg/injection, schedule: Q04DX003 (ip), vehicle: saline 102 % of control | dose: 400.0 mg/kg/injection, schedule: Q04DX003 (ip), vehicle: saline 100 % of control

CCCCCCC[CH2][Sn](=[O])[CH2]CCCCCCC
inactive: [8] 100 % of control | [10] 116 % of control | [3] 101 % of control | [4] 100 % of control

Cc1[nH][nH]c(=O)c1C=Nc1ccccc1
inactive: [17] 103 % of control | [18] 100 % of control | [19] 95 % of control

O=C1C2=C(Nc3ccccc3N2)OC1c1ccncc1 (centres undefined)
inactive: [14] 93 % of control | [15] 93 % of control | [16] 88 % of control

OC(c1ccccc1)C1CC=CCC1 (centres undefined)
inactive: dose: 12.5 mg/kg/injection, schedule: Q04DX003 (ip), vehicle: saline 97 % of control | dose: 25.0 mg/kg/injection, schedule: Q04DX003 (ip), vehicle: saline with Tween-80 101 % of control and 98 % of control | dose: 25.0 mg/kg/injection, schedule: Q04DX003 (ip), vehicle: saline 105 % of control | dose: 50.0 mg/kg/injection, schedule: Q04DX003 (ip), vehicle: saline with Tween-80 111 % of control and 96 % of control | dose: 50.0 mg/kg/injection, schedule: Q04DX003 (ip), vehicle: saline 109 % of control | [21] 99 % of control | [20] 103 % of control | [22] 99 % of control

CC(=O)NC1C(NC(=S)NCC(=O)c2ccc(C)cc2)OC(COC(C)=O)C(OC(C)=O)C1OC(C)=O (centres undefined)
inactive: [7] 94 % of control | [23] 94 % of control | dose: 200.0 mg/kg/injection, schedule: Q01DX005 (ip), vehicle: saline with Tween-80 91 % of control

O=C1CCC(Cc2ccc(C(F)(F)F)cc2)C(=O)N1 (centres undefined)
inactive: [24] 102 % of control | [25] 95 % of control | [26] 98 % of control

CCOC(OCC)/C(=C\N(C)C)N=C(C#N)C#N
inactive: [7] 113 % of control | [23] 111 % of control

CC1(c2ccc(N)cc2)NC(=O)NC1=O (centres undefined)
inactive: [27] 99 % of control | [28] 96 % of control

COc1ccc2nc(NC(=O)Nc3c(Cl)cccc3Cl)sc2c1
inactive: [24] 95 % of control | [25] 101 % of control | [26] 88 % of control

N#CC(C#N)=C(O)/C(=C/c1ccc(Cl)c(Cl)c1)NC(=O)c1ccccc1
inactive: [1] 88 % of control | [2] 88 % of control | dose: 200.0 mg/kg/injection, schedule: Q01DX005 (ip), vehicle: saline 104 % of control

CCC(CCC(C)C1CCC2C3CC=C4CC(OC(=O)CCC(=O)O)CCC4(C)C3CCC12C)C(C)C (centres undefined)
inactive: [21] 95 % of control | [22] 87 % of control | dose: 400.0 mg/kg/injection, schedule: Q04DX003 (ip), vehicle: saline with Tween-80 87 % of control

Cc1nc(Br)c(C(O)c2ccccc2)n1C (centres undefined)
inactive: [24] 103 % of control | [25] 92 % of control | [26] 97 % of control

O=C1CC2(CCCC2)C(=O)N1c1cccc2ccccc12
inactive: [27] 94 % of control | [28] 106 % of control | dose: 200.0 mg/kg/injection, schedule: Q01DX009 (ip), vehicle: Klucel (hydroxypropylcellulose) (HPC) 111 % of control
